Among the data in patent US9242943B2, “1,4 oxazines as BACE1 and/or BACE2 inhibitors” (SIENA BIOTECH S.P.A., priority 2011, dated 2016) are IC50 values, retold here.

Where only a bound is given, the exact number is not on record here.

In general, IC50 refers to the concentration that gives 50% inhibition.

For data set [1], the target named is BACE2 (Rattus norvegicus (Rat), UniProt Q6IE75). Nature of the data set: Assay for BACE inhibition by measuring cellular TMEM27 cleavage (INS-TMEM27 cells, ELISA). In kind it is cell-based. The following applies: INS-TMEM27 (INS1e-derived) cells; shed TMEM27 in supernatant; read-out: BACE2 cell act. IC50. The text has this: Assay for BACE Inhibition by Measuring Cellular TMEM27 Cleavage:
The assay uses the principle of inhibition of human TMEM27 cleavage by endogenous cellular BACE2 in the Ins1e rat cell line and shedding from the cell surface into the culture medium, followed by detection in an ELISA assay. Inhibition of BACE2 prevents the cleavage and shedding in a dose-dependent manner
The stable cell line “INS-TMEM27” represents an INS1e-derived cell line with inducible expression (using the TetOn system) of full-length hTMEM27 in a doxycycline-dependent manner. The cells are cultured throughout the experiment in RPMI1640 +Glutamax (Invitrogen) Penicillin/Streptomycin, 10% Fetal bovine serum, […], […], 100 micrograms/ml G418 and 100 microgram/ml hygromycin and are grown inadherent culture at 37° C. in a standard CO2 cell culture incubator.
INS-TMEM27 cells are seeded in 96-well plates. After 2 days in culture, BACE2 inhibitor is added in a range of concentrations as required by the assay and after a further two hours, doxycycline is added to a final concentration of 500 ng/ml. The cells are incubated for a further 46 hours and the supernatant harvested for detection of shed TMEM27.
An ELISA assay (using a pair of mouse anti-human-TMEM27 antibodies, raised against the extracellular domain of TMEM27) is used for detection of TMEM27 in the culture medium. An EC50 for BACE2 inhibition is calculated using the ELISA readout for each inhibitor concentration with standard curve-fitting software such as XLFit for the Excel spreadsheet program.
For orientation: ELISA stands for enzyme-linked immunosorbent assay.

For data set [2], the target named is BACE1 (Homo sapiens (Human), UniProt P56817). Nature of the data set: Cellular Aβ-lowering assay (Aβ40 ELISA, HEK293 cells expressing human APP695). In kind it is cell-based. The conditions noted are these: HEK293 cells stably transfected with human APP695; 18-20 hrs incubation; Aβ40 in supernatant; read-out: BACE1 cell act. Aβ40 IC50. The method, then: Cellular Aβ-Lowering Assay:
Human HEK293 cells which are stably transfected with a vector expressing a cDNA of the human APP wt gene (APP695) were used to assess the potency of the compounds in a cellular assay. The cells were seeded in 96-well microtiter plates in cell culture medium (Iscove, plus 10% (v/v) fetal bovine serum, glutamine, penicillin/streptomycin) to about 80% confluence and the compounds were added at a 10× concentration in 1/10 volume of medium without FCS containing 8% DMSO (final concentration of DMSO was kept at 0.8% v/v). After 18-20 hrs incubation at 37° C. and 5% CO2 in a humidified incubator the culture supernatant was harvested for the determination of […] concentrations. 96well ELISA plates (e.g., Nunc MaxiSorb) were coated with monoclonal antibody which specifically recognize the C-terminal end of […] (Brockhaus et al., NeuroReport 9, 1481-1486; 1998). After blocking of non-specific binding sites with e.g. 1% BSA and washing, the culture supernatants were added in suitable dilutions together with a horseradish peroxidase-coupled Aβ detection antibody (e.g., antibody 4G8, Senetek, Maryland Heights, Mo.) and incubated for 5 to 7 hrs. Subsequently the wells of the microtiter plate were washed extensively with Tris-buffered saline containing 0.05% Tween 20 and the assay was developed with tetramethylbenzidine/H2O2 in citric acid buffer. After stopping the reaction with one volume 1 N H2SO4 the reaction was measured in an ELISA reader at 450 nm wavelength. The concentrations of Aβ in the culture supernatants were calculated from a standard curve obtained with known amounts of pure Aβ peptide.

The target in data set [3] is CYP2C9 (Homo sapiens (Human), UniProt P11712). The experiment in a line: CYP inhibition assay, human liver microsomes, diclofenac 4' hydroxylase. In kind it is in vitro ADME. The following applies: pooled human liver microsomes, diclofenac substrate; read-out: CYP IC50 2C9. Here is the method:
(§1) Inhibition of cytochromes P450 (CYPs) 2C9, 2D6 and 3A4 was assessed using human liver microsomes and CYP-selective substrate metabolism reactions. 50 μl incubations were made up containing (finally) 0.2 mg/ml pooled human liver microsomes, 5 μM substrate (diclofenac for CYP2C9 [4′ hydroxylase], dextromethorphan for CYP2D6 [O-demethylase] or midazolam for CYP3A4 [1′ hydroxylase]), 0.25 μl, DMSO containing test inhibitor and NADPH regenerating system. Test inhibitor concentrations of 50, 16.7, 5.6, 1.9, 0.6 and 0.2 μM were assessed in singlicate. Incubations were prewarmed to 37° C. for 10 minutes before initiation by addition of NADPH regenerating system. Incubations were quenched after 5 minutes (20 minutes for dextromethorphan) by addition of 50 μl cold acetonitrile containing 20 ng/ml 4-OH-diclofenac-13C6, 20 ng/mL dextrorphan-D3 and 20 ng/mL 1-OH-midazolam-D4. Quenched incubates were stored at −20° C. for at least 1 hour before centrifugation (20,000×g, 20 minutes). Supernatants were removed and diluted 1:1 with water prior to analysis using a RapidFire sample injector system and API4000 mass spectrometer. Peak areas for substrate, metabolite and stable-labelled metabolite standard were determined using MS/MS. […] The percentage of (DMSO) control activity was calculated for each incubate and IC50 values estimated by non-linear regression. […]
In general terms: Microsomes from liver hold many membrane-bound enzymes, among them those of drug oxidation.

Data set [4] addresses CYP3A4 (Homo sapiens (Human), UniProt P08684). Nature of the data set: CYP inhibition assay, human liver microsomes, midazolam 1' hydroxylase. In kind it is in vitro ADME. The conditions noted are these: pooled human liver microsomes, midazolam substrate; read-out: CYP IC50 3A4. The method, then:
as §1

The target of data set [5] is CYP2D6 (Homo sapiens (Human), UniProt P10635). Nature of the data set: CYP inhibition assay, human liver microsomes, dextromethorphan O-demethylase. In kind it is in vitro ADME. The conditions noted are these: pooled human liver microsomes, dextromethorphan substrate; read-out: CYP IC50 2D6. Here is the method:
as §1

In data set [6] the target is cathepsin D (from human liver) (Homo sapiens (Human), UniProt P07339). Nature of the data set: Cathepsin D fluorescent substrate kinetic assay (MR121). In kind it is biochemical. The conditions noted are these: pH 5.5, substrate WTSVLMAAPC-MR121. The text has this:
(§2) Cathepsin D and Cathepsin E Fluorescent Substrate Kinetic Assays General Assay Principle
(§3) The MR121 fluorescence assays described below are based on the fact that MR121 forms a non-fluorescent ground state complex with tryptophan. In solution this formation occurs at millimolar concentrations of tryptophan. The mechanism can be used to design a generic biochemical assay for proteases. A substrate peptide is labeled at the N-terminus with tryptophan and at the C-terminus with the fluorophore MR121 (for cathepsin D the 10 amino acid peptide WTSVLMAAPC-MR121 was used; for cathepsin E, MR121-CKLVFFAEDW was used). In absence of protease activity, the substrates remain intact and the MR121 fluorescence is reduced by the high local Trp-concentration. If the substrates are cleaved by the enzymes the MR121 fluorescence is recovered.
(§4) The fluorescent substrate cathepsin D and cathepsin E kinetic assays were performed at room temperature in 384-well microtiter plates (black with clear flat bottom, non binding surface plates from Corning) in a final volume of 51 μl. […] The enzymatic reaction was followed in a plate: vision reader (Perkin Elmer) (excitation wavelength: 630 nm; emission: 695 nm) for at least 30 minutes in a kinetic measurement detecting an increase of MR121 fluorescence during the reaction time. […]

Data set [7] addresses recombinant human cathepsin E (Homo sapiens (Human), UniProt P14091). Nature of the data set: Cathepsin E fluorescent substrate kinetic assay (MR121). In kind it is biochemical. The following applies: pH 4.5, substrate MR121-CKLVFFAEDW
Description: as §2, §3, §4

Chain of BACE2 (Q6IE75 63-514): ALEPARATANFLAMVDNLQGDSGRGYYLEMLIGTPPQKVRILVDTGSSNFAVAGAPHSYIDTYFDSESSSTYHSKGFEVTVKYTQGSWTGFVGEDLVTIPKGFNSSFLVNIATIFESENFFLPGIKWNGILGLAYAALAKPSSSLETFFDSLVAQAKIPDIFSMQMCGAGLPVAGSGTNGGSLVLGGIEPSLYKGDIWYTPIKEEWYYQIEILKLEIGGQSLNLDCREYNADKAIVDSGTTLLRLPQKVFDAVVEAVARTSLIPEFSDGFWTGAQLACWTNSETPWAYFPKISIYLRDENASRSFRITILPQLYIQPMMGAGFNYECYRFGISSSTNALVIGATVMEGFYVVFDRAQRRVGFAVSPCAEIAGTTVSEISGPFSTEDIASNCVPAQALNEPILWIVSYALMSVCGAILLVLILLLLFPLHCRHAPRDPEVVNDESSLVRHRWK
Chain of BACE1 (P56817 46-501): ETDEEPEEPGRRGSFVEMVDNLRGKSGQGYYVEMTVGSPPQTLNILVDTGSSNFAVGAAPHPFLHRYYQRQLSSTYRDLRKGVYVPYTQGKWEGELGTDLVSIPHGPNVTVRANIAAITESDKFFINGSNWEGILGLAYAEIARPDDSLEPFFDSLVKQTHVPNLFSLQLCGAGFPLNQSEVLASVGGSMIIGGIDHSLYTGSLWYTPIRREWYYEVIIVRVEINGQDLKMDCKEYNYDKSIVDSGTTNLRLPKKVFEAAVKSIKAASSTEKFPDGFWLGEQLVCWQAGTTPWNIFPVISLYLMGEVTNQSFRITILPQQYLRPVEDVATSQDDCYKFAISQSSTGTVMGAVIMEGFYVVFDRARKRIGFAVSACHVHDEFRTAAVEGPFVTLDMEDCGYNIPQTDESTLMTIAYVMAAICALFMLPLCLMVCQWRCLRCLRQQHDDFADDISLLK
Chain of CYP3A4 (P08684 whole entry): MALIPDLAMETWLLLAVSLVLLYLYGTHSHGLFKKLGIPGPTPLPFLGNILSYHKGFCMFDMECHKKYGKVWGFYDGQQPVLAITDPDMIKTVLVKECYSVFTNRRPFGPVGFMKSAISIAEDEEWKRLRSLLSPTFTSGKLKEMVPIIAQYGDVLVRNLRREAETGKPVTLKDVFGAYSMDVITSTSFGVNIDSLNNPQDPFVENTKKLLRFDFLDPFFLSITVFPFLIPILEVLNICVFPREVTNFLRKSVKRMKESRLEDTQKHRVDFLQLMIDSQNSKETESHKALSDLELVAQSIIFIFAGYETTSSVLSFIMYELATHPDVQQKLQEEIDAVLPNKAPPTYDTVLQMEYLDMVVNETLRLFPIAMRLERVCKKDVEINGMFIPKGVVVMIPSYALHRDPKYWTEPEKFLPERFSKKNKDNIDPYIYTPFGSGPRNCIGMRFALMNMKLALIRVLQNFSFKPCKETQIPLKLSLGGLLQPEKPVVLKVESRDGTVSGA
Chain of cathepsin D (from human liver) (P07339 169-412): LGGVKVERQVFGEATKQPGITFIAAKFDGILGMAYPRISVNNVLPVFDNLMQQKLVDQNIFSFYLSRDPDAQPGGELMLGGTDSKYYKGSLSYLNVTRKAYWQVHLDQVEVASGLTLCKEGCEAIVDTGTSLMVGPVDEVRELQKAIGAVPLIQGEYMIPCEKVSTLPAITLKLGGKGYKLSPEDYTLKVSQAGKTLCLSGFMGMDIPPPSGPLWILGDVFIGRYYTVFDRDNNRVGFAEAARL
Chain of cathepsin D (from human liver) (P07339 65-162): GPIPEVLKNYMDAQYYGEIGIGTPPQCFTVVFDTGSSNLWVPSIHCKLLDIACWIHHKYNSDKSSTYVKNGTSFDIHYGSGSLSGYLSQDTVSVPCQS
Chain of recombinant human cathepsin E (P14091 54-396): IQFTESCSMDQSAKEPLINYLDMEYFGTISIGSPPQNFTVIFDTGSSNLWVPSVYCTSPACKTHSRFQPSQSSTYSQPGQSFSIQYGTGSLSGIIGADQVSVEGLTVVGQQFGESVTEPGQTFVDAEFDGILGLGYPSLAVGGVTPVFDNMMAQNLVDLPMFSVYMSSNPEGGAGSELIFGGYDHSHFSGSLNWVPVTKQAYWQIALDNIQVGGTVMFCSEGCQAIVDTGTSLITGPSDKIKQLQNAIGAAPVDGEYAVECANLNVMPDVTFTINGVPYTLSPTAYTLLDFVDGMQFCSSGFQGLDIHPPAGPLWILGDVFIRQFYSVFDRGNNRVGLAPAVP
Chain of CYP2C9 (P11712 whole entry): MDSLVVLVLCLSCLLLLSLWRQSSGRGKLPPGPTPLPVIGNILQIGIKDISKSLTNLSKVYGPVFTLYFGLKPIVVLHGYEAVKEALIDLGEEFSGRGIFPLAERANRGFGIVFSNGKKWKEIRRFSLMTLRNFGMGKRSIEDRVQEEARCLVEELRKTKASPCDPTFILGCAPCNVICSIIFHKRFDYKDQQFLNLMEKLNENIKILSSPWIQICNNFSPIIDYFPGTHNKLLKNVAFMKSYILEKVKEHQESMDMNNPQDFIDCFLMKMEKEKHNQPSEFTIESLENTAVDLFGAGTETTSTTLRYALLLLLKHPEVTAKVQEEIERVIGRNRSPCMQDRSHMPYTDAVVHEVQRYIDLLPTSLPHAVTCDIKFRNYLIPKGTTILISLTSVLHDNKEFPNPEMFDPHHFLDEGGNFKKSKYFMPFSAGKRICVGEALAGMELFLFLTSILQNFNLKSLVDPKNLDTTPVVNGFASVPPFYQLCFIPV
Chain of CYP2D6 (P10635 whole entry): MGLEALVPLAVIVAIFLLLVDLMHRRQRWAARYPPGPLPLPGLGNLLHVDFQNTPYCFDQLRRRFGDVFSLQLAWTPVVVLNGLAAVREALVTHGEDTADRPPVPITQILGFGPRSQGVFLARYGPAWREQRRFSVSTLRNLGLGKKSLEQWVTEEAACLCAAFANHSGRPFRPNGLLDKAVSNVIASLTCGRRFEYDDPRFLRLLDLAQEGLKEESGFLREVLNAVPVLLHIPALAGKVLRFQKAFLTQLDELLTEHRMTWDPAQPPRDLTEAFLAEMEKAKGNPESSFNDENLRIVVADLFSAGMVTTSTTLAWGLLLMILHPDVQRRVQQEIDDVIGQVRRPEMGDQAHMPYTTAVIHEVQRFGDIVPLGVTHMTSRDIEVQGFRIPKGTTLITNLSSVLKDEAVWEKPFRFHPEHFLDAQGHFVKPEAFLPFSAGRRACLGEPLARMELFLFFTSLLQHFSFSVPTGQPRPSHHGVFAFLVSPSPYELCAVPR

As to `CC1(c2cccc(Nc3cccc4cc(Cl)cnc34)c2)COCC(N)=N1` (centres unmarked) [Example 24, [3-(5-Amino-3-methyl-3,6-dihydro-2H-[1,4]oxazin-3-yl)-phenyl]-(3-chloro-quinolin-8-yl)-amine], the concentration for half-maximal inhibition (IC50) in data set [1] was found to be 0.018 µM; in data set [2], 0.25 µM.
In the same order, the values of `C[C@@]1(c2cc(Nc3cccc4cc(Cl)cnc34)ccc2F)COCC(N)=N1` [Example 26, [3-((R)-5-Amino-3-methyl-3,6-dihydro-2H-[1,4]oxazin-3-yl)-4-fluoro-phenyl]-(3-chloro-quinolin-8-yl)-amine] are 0.077 µM and 0.16 µM.
Regarding `C[C@@]1(c2cc(Nc3cc(Cl)cc4cc(Cl)cnc34)ccc2F)COCC(N)=N1` [Example 27, [3-((R)-5-Amino-3-methyl-3,6-dihydro-2H-[1,4]oxazin-3-yl)-4-fluoro-phenyl]-(3,6-dichloro-quinolin-8-yl)-amine], the half-inhibitory concentration (IC50) in data set [3] is greater than 50 µM; in data set [4], 33 µM; in data set [1], 0.558 µM; in data set [2], 0.66 µM; in data set [5], 4.5 µM.
As for `C[C@@]1(c2cc(Nc3cccc4cc(OC(F)F)cnc34)ccc2F)COCC(N)=N1` [Example 29, [3-((R)-5-Amino-3-methyl-3,6-dihydro-2H-[1,4]oxazin-3-yl)-4-fluoro-phenyl]-(3-difluoromethoxy-quinolin-8-yl)-amine], the 50% inhibitory concentration (IC50) in data set [6] came to 21.1 µM; in data set [1] it was 2.3 µM; in data set [7], 17.6 µM; in data set [2], 0.27 µM.
In the case of `C[C@@]1(c2cc(Nc3ccon3)ccc2F)COCC(N)=N1` [Example 33, (R)-5-[2-Fluoro-5-(isoxazol-3-ylamino)-phenyl]-5-methyl-5,6-dihydro-2H-[1,4]oxazin-3-ylamine], the IC50 stood at 1.21 µM in data set [1] and 0.58 µM in data set [2].
`Cn1nc(Nc2ccc(F)c([C@@]3(C)COCC(N)=N3)c2)c2ccc(Cl)cc21` [Example 34, (S)-5-(5-(6-chloro-1-methyl-1H-indazol-3-ylamino)-2-fluorophenyl)-5-methyl-5,6-dihydro-2H-1,4-oxazin-3-amine]: the IC50 amounted to 6.7 µM in data set [3]; 25 µM in data set [4]; 1.48 µM in data set [1]; 1.04 µM in data set [2]; 2 µM in data set [5].
Turning to `C[C@]1(c2cc(NC3CCc4cc(Cl)ccc43)ccc2F)COCC(N)=N1` (stereo partly drawn) [Example 35, (S)-5-[5-(5-Chloro-indan-1-ylamino)-2-fluoro-phenyl]-5-methyl-5,6-dihydro-2H-[1,4]oxazin-3-ylamine], the IC50 in data set [1] was 0.732 µM; in data set [2], 0.1 µM.
Regarding `CC1(c2cccc(Nc3cc(F)cc4cc(Cl)cnc34)c2)COCC(N)=N1` (centres unmarked) [Example 36, [3-(5-Amino-3-methyl-3,6-dihydro-2H-[1,4]oxazin-3-yl)-phenyl]-(3-chloro-6-fluoro-quinolin-8-yl)-amine], the IC50 in data set [6] worked out at 2.6 µM; in data set [7], 5 µM; in data set [2], 0.25 µM.
In the case of `C[C@@]1(c2cc(NC3CCc4cc(Cl)cnc43)ccc2F)COCC(N)=N1` (stereo partly drawn) [Example 40, [3-((R)-5-Amino-3-methyl-3,6-dihydro-2H-[1,4]oxazin-3-yl)-4-fluoro-phenyl]-(3-chloro-6,7-dihydro-5H-[1]pyrindin-7-yl)-amine], the values for the 50% inhibitory concentration (IC50) in data set [1] and in data set [2] were 1.1 µM and 0.32 µM, respectively.
For `C[C@@]1(c2cc(Nc3ccccc3OCC(F)F)ccc2F)COCC(N)=N1` [Example 41, (R)-5-{5-[2-(2,2-Difluoro-ethoxy)-phenylamino]-2-fluoro-phenyl}-5-methyl-5,6-dihydro-2H-[1,4]oxazin-3-ylamine], in that order: 0.01 µM and 2.14 µM.
